Calls of active or inactive are those of the source. No cut-off for these calls is given here.
How the values were obtained:
[1] = test system: MCF7; experiment: Antiproliferative activity against human MCF7 cells by MTT assay; type: functional, cell-based
[2] = test system: HepG2; experiment: Antiproliferative activity against human HepG2 cells by MTT assay; type: functional, cell-based

Q: Which Activity [1] does the source give for `COc1c(O)c2c(c(S(=O)(=O)O)c1O)OC(c1ccc(O)cc1)CC2=O` (racemic) here?
A: inactive

Q: What about the Activity [2] of the same molecule?
A: inactive

— ChEMBL document CHEMBL4196204, “Sulfonic Acid-Containing Flavonoids from the Roots of Phyllanthus acidus” (J Nat Prod, 2018)
